According to patent publication US20030224992A1, “Transcription factor modulators and uses thereof” (Praecis Pharmaceuticals Inc., priority 2002, published 2003):

Tested on: androgen responsive gene, kallikrein 3 (PSA II transcripts) in LNCaP cells
Experiment: Down-regulation of androgen receptor responsive gene expression by ARE (real time PCR)
Format: cell-based
Details: electroporation, 1, 5 or 20 μM, 10 nM DHT, 4 hours

5′-AGTCTACGAGTGGGGTTCTTTTTTA-3′ (SEQ ID NO: 24) (DNA AGTCTACGAGTGGGGTTCTTTTTTA; chemistry not given here) [scrambled ARE]
steady state levels of PSA II transcripts normalized to actin (DHT induction): this was not observed
